From publication PMC6748986, “Potent modulation of the CepR quorum sensing receptor and virulence in a Burkholderia cepacia complex member using non-native lactone ligands” (Scientific Reports, 2019)
Where a chain is given by its changes, count along the chain named. pEC50, pIC50: −log10 of the molar value. Where “and” joins values, the source holds several entries; their conditions need not be identical. Identical values can stand only once. Like-named read-outs stand apart in the source and are kept apart here.

Key:
[1] = biological target: T1, CepR (Burkholderia multivorans, UniProt Q93PF7); assay: CepR antagonism in B. multivorans cepI::lacZ reporter (Bm-reporter), competition against C8-AHL; type: cell-based; conditions: for pIC50: read-out: IC50; for Inh% (100-Act%): screening conc. 100 μM
T1 sequence (Q93PF7 1-239): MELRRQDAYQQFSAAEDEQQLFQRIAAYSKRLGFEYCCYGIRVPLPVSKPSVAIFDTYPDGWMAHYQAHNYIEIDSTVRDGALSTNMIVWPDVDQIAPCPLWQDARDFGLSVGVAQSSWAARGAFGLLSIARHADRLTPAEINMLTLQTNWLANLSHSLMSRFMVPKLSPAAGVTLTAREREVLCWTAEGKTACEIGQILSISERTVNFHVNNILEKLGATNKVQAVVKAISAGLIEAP
Excerpt: (§1) We next sought to assess if the CepR modulators identified in the Ec-reporter maintained their activities in a member of the Bcc. For these studies, we generated a B. multivorans cepI::lacZ reporter organism (Bm-reporter) using standard allelic exchange methods (see Methods). Along with B. cenocepacia, B. multivorans is one of the most commonly isolated Bcc members[6],[44]. We note that small molecules must contend with a different cellular environment in the native organism relative to E. coli[48]; however, as both CepR and the cepI promoter are highly conserved among Bcc species (Fig. S3), we reasoned that the majority of compounds identified in the Ec-reporter (containing B. cenocepacia versions of the cepI promoter and the cepR gene) would maintain their relative activity profiles in CepR in B. multivorans. […] Similar to the Ec-reporter, CepR binding to the cepI promoter then induces β-galactosidase production, allowing for the quantitation of CepR activity. Using the Bm-reporter organism, we observed robust activity for CepR in response to C8-AHL (EC50 = 0.7 nM, Table 3).
(§2) The B. multivorans cepI::lacZ strain was used to obtain dose-response data for CepR in response to synthetic AHLs. Overnight cultures of B. multivorans cepI::lacZ were grown in LB medium at 37 °C with shaking (225 rpm). Aliquots (200 μL) of a 1:10 dilution of this overnight culture were plated into 96-well plates containing varying concentrations of compound, and then grown for 4 h at 37 °C with shaking (225 rpm). β-galactosidase production was measured as described above for E. coli, with the following changes: permeabilized cells were incubated at 25 °C with substrate CPRG for ~10 min until positive control wells developed a deep red color. For agonism assays, synthetic compound was screened alongside and compared to the native ligand, C8-AHL (100 μM). For antagonism assays, the concentration of native ligand utilized was 5 nM (approximately equal to twice its EC50 value).

[2] = biological target: T2, CepR (Burkholderia cenocepacia, UniProt B4EMD0); assay: CepR agonism in E. coli β-galactosidase reporter (Ec-reporter) JLD271 [pJN105-cepR + pSC11-cepI]; type: cell-based, B. cenocepacia; conditions: for Maximal Activation (%): activity for 100 μM C8-AHL set to 100%, error ±10%
T2 sequence (B4EMD0 1-239): T1 sequence (Q93PF7 1-239) with R5W, S51A, H69Q, S84N, Q95R, A97D
How it was run: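 E. coli JLD271 (ΔsdiA) carrying arabinose-inducible CepR (27 mM L-arabinose) and cepI-lacZ fusion, grown 4 h with compound; β-galactosidase measured by CPRG cleavage at 37 °C (~30 min), normalized to OD600. Agonism compared with C8-AHL at 100 μM; screen at 100 μM or solubility limit, then dose-response; ≥3 trials.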

[3] = biological target: T2, CepR; assay: CepR antagonism in E. coli β-galactosidase reporter (Ec-reporter), competition against C8-AHL; type: cell-based, B. cenocepacia
How it was run: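 CepR antagonism was measured in E. coli JLD271 (∆sdiA) carrying pJN105-cepR, which expresses B. cenocepacia CepR from an arabinose-inducible pBAD promoter, and pSC11-cepI, which fuses lacZ to the cepI promoter. Induced cells were grown 4 h with compound and 10 nM C8-AHL. β-Galactosidase activity was then read by CPRG cleavage at 37 °C after Z Buffer permeabilization.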

[4] = biological target: T1, CepR; assay: CepR agonism in B. multivorans cepI::lacZ reporter (Bm-reporter); type: cell-based; conditions: for Maximal Activation (%): activity for 100 μM C8-AHL set to 100%, error ±10%; for pEC50: read-out: EC50
Excerpt: as §1, §2

[5] = Bm-reporter, against 5 nM C8-AHL
[6] = Table S2, Ec-reporter, screening conc. 100 μM
[7] = Ec-reporter, against 10 nM C8-AHL
[8] = Table S3, Ec-reporter, screening conc. 100 μM, against 10 nM C8-AHL
[9] = Ec-reporter, agonism dose-response
[10] = Table S4, Bm-reporter, screening conc. 100 μM
[11] = Bm-reporter, agonism dose-response

Row | SMILES | Maximal Inhibition (%) [1, 5] [%] | Maximal Activation (%) ([2]; Ec-reporter) | Act% [2, 6] [%] | Maximal Inhibition (%) [3, 7] [%] | Inh% (100-Act%) ([1]; Table S5, Bm-reporter) [%] | Inh% (100-Act%) [3, 8] [%] | pEC50 [2, 9] | Act% [4, 10] [%] | other results
1 | CCCC(=O)CC(=O)N[C@H]1CCOC1=O [3’O-C6-AHL, reference compound] | 85 |  |  |  |  |  |  |  | pIC50 [1, 5]: 6.10
2 | CCCCCCS(=O)(=O)N[C@H]1CCOC1=O [Compound A11] |  | −5.0% | -5.0 | 78 | 84 |  |  |  | CepR agonism in words ([2]; Ec-reporter): failed to activate CepR
3 | CCCC(=O)N[C@H]1CCOC1=O [Compound C4-AHL, butanoyl L-homoserine lactone, reference compound] | 76 | 23% | 23 | 58 |  |  |  |  | pIC50 [3, 7]: 4.70; pIC50 [1, 5]: 6.60
4 | O=C(Cc1cccc(Cl)c1)N[C@H]1CCOC1=O [Compound C6] |  |  | 3.2 | 66 | 98 |  |  |  | pIC50 [3, 7]: 4.41
5 | O=C(Cc1ccccc1Cl)N[C@H]1CCOC1=O [Compound C7] |  |  | 0.3 | 89 | 95 |  |  |  | pIC50 [3, 7]: 5.23
6 | O=C(Cc1ccccc1Br)N[C@H]1CCOC1=O [Compound C9] |  |  | 0.3 |  | 99 | 52 |  |  | pIC50 ([3]; Table S3, Ec-reporter): 4.40
7 | O=C(Cc1ccccc1I)N[C@H]1CCOC1=O [Compound C12] |  |  | -0.4 |  | 104 | 72 |  |  | pIC50 ([3]; Table S3, Ec-reporter): 4.66
8 | O=C(Cc1ccc([N+](=O)[O-])cc1)N[C@H]1CCOC1=O [Compound C13] | 96 |  | 1.1 |  |  | 79 |  |  | pIC50 ([3]; Table S3, Ec-reporter): 5.17; CepR antagonism in words ([1]; Bm-reporter): bring reporter activity down to nearly zero; pIC50 [1, 5]: 5.44
9 | O=C(Cc1cccc([N+](=O)[O-])c1)NC1CCOC1=O (stereo not drawn) [Compound C14] | 54 |  | 16 | 46 |  |  |  |  | pIC50 [3, 7]: 5.85; pIC50 [1, 5]: 6.21
10 | O=C(Cc1ccccc1[N+](=O)[O-])N[C@H]1CCOC1=O [Compound C15] |  |  | 1.4 |  | 95 | 79 |  |  | 
11 | N#Cc1ccc(CC(=O)N[C@H]2CCOC2=O)cc1 [Compound E4] |  |  | 0.2 |  | 97 | 29 |  |  | pIC50 ([1]; Table S5, Bm-reporter): ≤ 5.35
12 | N#Cc1cccc(CC(=O)N[C@H]2CCOC2=O)c1 [Compound E5] | 43 |  | 4.9 | 81 |  |  |  |  | pIC50 [3, 7]: 5.57
13 | CSc1cccc(CC(=O)NC2CCOC2=O)c1 (stereo not drawn) [Compound E7] | 97 |  | 5.9 | 76 |  |  |  |  | pIC50 [3, 7]: 5.51; CepR antagonism in words ([1]; Bm-reporter): bring reporter activity down to nearly zero; pIC50 [1, 5]: 5.40
14 | O=C(Cc1ccc(Cl)c(Cl)c1)N[C@H]1CCOC1=O [Compound E11] |  |  | 1.9 |  | 94 | 59 |  |  | 
15 | O=C(Cc1cccc2ccccc12)N[C@H]1CCOC1=O [Compound E13] | 13 |  | 2.5 |  |  | 50 |  |  | pIC50 ([3]; Table S3, Ec-reporter): 5.31
16 | O=C(COc1cccc([N+](=O)[O-])c1)N[C@H]1CCOC1=O [Compound E25] | 83 |  | 25 | 70 |  |  |  |  | pIC50 [3, 7]: 5.52; pIC50 ([1]; Table S5, Bm-reporter): ≤ 5.48
17 | Cc1ccc(CCC(=O)N[C@H]2CCOC2=O)cc1 [Compound E26] |  | 96% | 96 |  |  | -10 | 8.23 | 96 | Maximal Activation (%) ([4]; Bm-reporter): 96%; pEC50 ([4]; Table S4, Bm-reporter): 9.11
18 | COc1ccc(CCC(=O)N[C@H]2CCOC2=O)cc1 [Compound E28] |  | 92% | 92 |  |  | -30 | 8.42 | 90 | pEC50 ([4]; Table S4, Bm-reporter): 7.28
19 | O=C(CCc1ccc(F)cc1)N[C@H]1CCOC1=O [Compound E29] |  | 92% | 92 |  |  | -10 | 8.64 | 94 | 
20 | O=C(CCc1ccc(Cl)cc1)N[C@H]1CCOC1=O [Compound E30] |  | 85% | 85 |  |  | -10 | 8.36 | 84 | pEC50 [4, 11]: 9.12; Maximal Activation (%) ([4]; Bm-reporter): 84%
21 | O=C(CCc1cccc(Br)c1)N[C@H]1CCOC1=O [Compound E31] |  | 89% | 89 |  |  | -20 | 8.36 | 78 | pEC50 [4, 11]: ≤ 5.47; Maximal Activation (%) ([4]; Bm-reporter): 78%
22 | O=C(CCc1cccc(I)c1)N[C@H]1CCOC1=O [Compound E33] |  | 92% | 92 |  |  | -20 | 9.02 | 94 | EC50 (nM) [2, 9]: sub-nanomolar; pEC50 [4, 11]: 9.82; Maximal Activation (%) ([4]; Bm-reporter): 94%
23 | CSc1ccc(CCC(=O)N[C@H]2CCOC2=O)cc1 [Compound E34] |  | 104% and 100% | 104 |  |  | -20 | 10.15 | 110 | Fold more potent than C8-AHL ([2]; Ec-reporter, EC50 comparison): ~100 fold; pEC50 [4, 11]: 9.03; Maximal Activation (%) ([4]; Bm-reporter): 110%
24 | O=C(CCc1cccc(C(F)(F)F)c1)N[C@H]1CCOC1=O [Compound E36] |  | 92% | 92 |  |  | -10 | 7.59 | 103 | pEC50 [4, 11]: ≤ 5.41; Maximal Activation (%) ([4]; Bm-reporter): 100%
25 | O=C(CCc1ccc2c(c1)OCO2)N[C@H]1CCOC1=O [Compound E39] |  | 100% | 103 |  |  | -40 | 8.85 | 84 | pEC50 ([4]; Table S4, Bm-reporter): 8.04
26 | CCCOc1ccc(C(=O)N[C@H]2CCOC2=O)cc1 [Compound R2] |  |  | 98 |  |  | -10 |  | 92 | pEC50 ([2]; Table S2, Ec-reporter): 7.42
27 | CC(C)Oc1ccc(C(=O)N[C@H]2CCOC2=O)cc1 [Compound R3] |  |  | 92 |  |  | -10 |  | 40 | pEC50 ([2]; Table S2, Ec-reporter): 7.03
28 | CCCCOc1ccc(C(=O)N[C@H]2CCOC2=O)cc1 [Compound R4] |  |  |  |  |  |  |  |  | pEC50 ([2]; Table S2, Ec-reporter): 7.07; Act% ([2]; Table S2, Ec-reporter, screening conc. 25 μM): 84%; Inh% (100-Act%) ([3]; Table S3, Ec-reporter, screening conc. 25 μM): -30%; Act% ([4]; Table S4, Bm-reporter, screening conc. 25 μM): 58%
29 | O=C(N[C@H]1CCOC1=O)C1CCCC1 [Compound S4] | 93 |  | 0.2 | 72 |  |  |  |  | pIC50 [3, 7]: 4.49; pIC50 [1, 5]: 5.43
30 | O=C(Cc1ccc(Br)cc1)N[C@H]1CCOC1=O [Control 7, reference compound] |  |  | 0.2 |  | 85 | 89 |  |  | 
